The values below are quoted from earlier work in US11547674B2, “Protein-polymer hybrid biomaterials” (The Regents of the University of California, priority 2018, dated 2023).

Usually Km stands for the substrate concentration at which the rate is half of its maximum.

In this data set the target is Bacillus stearothermophillus LDH (Geobacillus stearothermophilus, UniProt P00344). The following applies: read-out: Km of oxamate for LDH.
Sequence of Bacillus stearothermophillus LDH (P00344 whole entry): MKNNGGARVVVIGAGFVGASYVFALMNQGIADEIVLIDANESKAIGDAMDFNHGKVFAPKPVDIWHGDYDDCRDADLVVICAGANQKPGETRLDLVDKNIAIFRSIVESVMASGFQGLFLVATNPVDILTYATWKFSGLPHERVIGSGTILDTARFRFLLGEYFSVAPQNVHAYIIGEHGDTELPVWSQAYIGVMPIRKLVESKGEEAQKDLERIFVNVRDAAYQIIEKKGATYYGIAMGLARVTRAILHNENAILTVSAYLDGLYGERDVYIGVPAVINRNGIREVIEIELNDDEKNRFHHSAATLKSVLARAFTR

Consider `NC(=O)C(=O)O` [oxamate], for which the Km is 600 µM.
